Paper PMC11261597, “Three-Step Enzymatic Remodeling of Chitin into Bioactive Chitooligomers” (Journal of Agricultural and Food Chemistry, 2024)

Target: T1, BsPdaC (Bacillus subtilis, UniProt O34798)
T1 construct: gene pdaC
T1 sequence (O34798 278-467 limits assumed): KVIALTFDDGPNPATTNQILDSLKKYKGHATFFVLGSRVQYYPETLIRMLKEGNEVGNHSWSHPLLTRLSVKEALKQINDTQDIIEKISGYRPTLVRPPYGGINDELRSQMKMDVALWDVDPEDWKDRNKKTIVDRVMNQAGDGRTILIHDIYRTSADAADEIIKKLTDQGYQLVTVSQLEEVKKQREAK
Experiment: deacetylation followed by HPLC-MS
Type: biochemical
Settings: 2 mM substrate, 4 μM enzyme, PBS pH 7.5, 37 °C

| Structure (SMILES) | deacetylation followed by HPLC-MS |
| --- | --- |
| CC(=O)N[C@H]1[C@H](O[C@H]2[C@H](O)[C@@H](NC(C)=O)C(O)O[C@@H]2CO)O[C@H](CO)[C@@H](O[C@@H]2O[C@H](CO)[C@@H](O[C@@H]3O[C@H](CO)[C@@H](O)[C@H](O)[C@H]3NC(C)=O)[C@H](O)[C@H]2NC(C)=O)[C@@H]1O (some centres unmarked) [CH4, N,N′,N″,N‴-tetraacetylchitotetraose] | BsPdaC exhibited an effective deacetylation of standard CH4 and CH5 substrates |
| CC(=O)N[C@H]1[C@H](O[C@H]2[C@H](O)[C@@H](NC(C)=O)[C@H](O[C@H]3[C@H](O)[C@@H](NC(C)=O)C(O)O[C@@H]3CO)O[C@@H]2CO)O[C@H](CO)[C@@H](O[C@@H]2O[C@H](CO)[C@@H](O[C@@H]3O[C@H](CO)[C@@H](O)[C@H](O)[C@H]3NC(C)=O)[C@H](O)[C@H]2NC(C)=O)[C@@H]1O (some centres unmarked) [CH5] | BsPdaC exhibited an effective deacetylation of standard CH4 and CH5 substrates |
